Inconclusive results and toxic doses are left out. Rule for the calls: active = survival T/C of 150% or more; inactive = T/C below 125% in these data.
Tested on: P388 leukemia ip, CD2F1 mice, survival T/C
Test: NCI In Vivo Anticancer Drug Screen. Data for tumor model P388 Leukemia (intraperitoneal) in CD2F1 (CDF1) mice
Details: endpoint: median survival time, higher = longer survival
In short: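 Mice carrying the transplanted tumor received test compound or vehicle. Survival was recorded in each group, and the value is the treated-group measurement divided by that of the vehicle-treated control group.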

[1] = dose: 60.0 mg/kg/injection, schedule: Q01DX005 (ip), vehicle: saline with Tween-80
[2] = dose: 120.0 mg/kg/injection, schedule: Q01DX005 (ip), vehicle: saline with Tween-80
[3] = dose: 50.0 mg/kg/injection, schedule: Q01DX005 (ip), vehicle: saline with Tween-80
[4] = dose: 100.0 mg/kg/injection, schedule: Q01DX005 (ip), vehicle: saline with Tween-80
[5] = dose: 200.0 mg/kg/injection, schedule: Q01DX005 (ip), vehicle: saline with Tween-80
[6] = dose: 100.0 mg/kg/injection, schedule: Q04DX002 (ip), vehicle: suspension in saline
[7] = dose: 200.0 mg/kg/injection, schedule: Q04DX002 (ip), vehicle: suspension in saline
[8] = dose: 50.0 mg/kg/injection, schedule: Q01DX005 (ip), vehicle: saline
[9] = dose: 100.0 mg/kg/injection, schedule: Q01DX005 (ip), vehicle: saline
[10] = dose: 6.25 mg/kg/injection, schedule: Q01DX009 (ip), vehicle: saline
[11] = dose: 12.5 mg/kg/injection, schedule: Q01DX009 (ip), vehicle: saline
[12] = dose: 25.0 mg/kg/injection, schedule: Q01DX009 (ip), vehicle: saline
[13] = dose: 50.0 mg/kg/injection, schedule: Q01DX009 (ip), vehicle: Klucel (hydroxypropylcellulose) (HPC)
[14] = dose: 100.0 mg/kg/injection, schedule: Q01DX009 (ip), vehicle: Klucel (hydroxypropylcellulose) (HPC)
[15] = dose: 200.0 mg/kg/injection, schedule: Q01DX009 (ip), vehicle: Klucel (hydroxypropylcellulose) (HPC)
[16] = dose: 50.0 mg/kg/injection, schedule: Q01DX005 (ip), vehicle: Klucel (hydroxypropylcellulose) (HPC)
[17] = dose: 100.0 mg/kg/injection, schedule: Q01DX005 (ip), vehicle: Klucel (hydroxypropylcellulose) (HPC)
[18] = dose: 200.0 mg/kg/injection, schedule: Q01DX005 (ip), vehicle: Klucel (hydroxypropylcellulose) (HPC)

Measured: T/C

CC(C)CCCCCCCCCCCCC(=O)NCC(=O)O
inactive: dose: 12.5 mg/kg/injection, schedule: Q01DX009 (ip), vehicle: distilled water + Tween-80 96 % of control | dose: 25.0 mg/kg/injection, schedule: Q01DX009 (ip), vehicle: distilled water + Tween-80 96 % of control | dose: 50.0 mg/kg/injection, schedule: Q01DX009 (ip), vehicle: distilled water + Tween-80 86 % of control | dose: 100.0 mg/kg/injection, schedule: Q01DX009 (ip), vehicle: distilled water + Tween-80 86 % of control | dose: 200.0 mg/kg/injection, schedule: Q01DX009 (ip), vehicle: distilled water + Tween-80 87 % of control

O/N=C/C1CCCC[N-]1.[Co+3].[O-]/N=C/C1CCCC[N-]1.[O-]/N=C/C1CCCC[N-]1.[O-][Cl+3]([O-])([O-])O (centres undefined)
inactive: [1] 97 % of control | [2] 103 % of control | dose: 240.0 mg/kg/injection, schedule: Q01DX005 (ip), vehicle: saline with Tween-80 104 % of control

CC1(C)Cc2nc3ccccc3nc2-c2ccccc21
inactive: [3] 101 % of control | [4] 98 % of control | [5] 100 % of control

CC(C)=Cc1ccccc1C1(C)C(c2ccccc2)=C1c1ccccc1
inactive: dose: 100.0 mg/kg/injection, schedule: Q04DX002 (ip), vehicle: Klucel (hydroxypropylcellulose) (HPC) 100 % of control | dose: 200.0 mg/kg/injection, schedule: Q04DX002 (ip), vehicle: Klucel (hydroxypropylcellulose) (HPC) 98 % of control | dose: 400.0 mg/kg/injection, schedule: Q04DX002 (ip), vehicle: Klucel (hydroxypropylcellulose) (HPC) 98 % of control

O=C(O)CCCCCCCCCCC1C=CCC1 (centres undefined)
inactive: dose: 100.0 mg/kg/injection, schedule: Q04DX003 (ip), vehicle: saline 93 % of control | dose: 200.0 mg/kg/injection, schedule: Q04DX003 (ip), vehicle: saline 93 % of control | dose: 400.0 mg/kg/injection, schedule: Q04DX003 (ip), vehicle: saline 93 % of control

Cc1ccc2nc(CN(CCN(Cc3nc4ccc(C)cc4[nH]3)Cc3nc4ccc(C)cc4[nH]3)Cc3nc4ccc(C)cc4[nH]3)[nH]c2c1
inactive: dose: 0.38 mg/kg/injection, schedule: Q01DX005 (ip), vehicle: saline with Tween-80 94 % of control | dose: 0.75 mg/kg/injection, schedule: Q01DX005 (ip), vehicle: saline with Tween-80 97 % of control | dose: 1.5 mg/kg/injection, schedule: Q01DX005 (ip), vehicle: saline with Tween-80 109 % of control | dose: 3.0 mg/kg/injection, schedule: Q01DX005 (ip), vehicle: saline with Tween-80 106 % of control | dose: 3.12 mg/kg/injection, schedule: Q01DX005 (ip), vehicle: saline with Tween-80 113 % of control

C=C1C(=O)CCC1C#N (centres undefined)
inactive: dose: 50.0 mg/kg/injection, schedule: Q04DX002 (ip), vehicle: suspension in saline 100 % of control | [6] 100 % of control | [7] 93 % of control

O=[N+]([O-])c1ccc(-c2ncc(-c3ccc(Br)cc3)o2)cc1
inactive: dose: 60.0 mg/kg/injection, schedule: Q01DX005 (ip), vehicle: Klucel (hydroxypropylcellulose) (HPC) 108 % of control | dose: 120.0 mg/kg/injection, schedule: Q01DX005 (ip), vehicle: Klucel (hydroxypropylcellulose) (HPC) 107 % of control | dose: 240.0 mg/kg/injection, schedule: Q01DX005 (ip), vehicle: Klucel (hydroxypropylcellulose) (HPC) 110 % of control

O=C(O)CS(=O)(=O)Cc1ccc(Cl)cc1Cl
inactive: dose: 60.0 mg/kg/injection, schedule: Q01DX005 (ip), vehicle: suspension in saline 103 % of control | dose: 120.0 mg/kg/injection, schedule: Q01DX005 (ip), vehicle: suspension in saline 112 % of control | dose: 240.0 mg/kg/injection, schedule: Q01DX005 (ip), vehicle: suspension in saline 96 % of control

CCC[n+]1ccc(/C=N\NC(N)=S)c2ccccc21
inactive: dose: 50.0 mg/kg/injection, schedule: Q01DX009 (ip), vehicle: saline with Tween-80 110 % of control | dose: 100.0 mg/kg/injection, schedule: Q01DX009 (ip), vehicle: saline with Tween-80 121 % of control | dose: 200.0 mg/kg/injection, schedule: Q01DX009 (ip), vehicle: saline with Tween-80 112 % of control

OCCNCCN=C1CCC(=NCCNCCO)CC1
inactive: [8] 107 % of control | [9] 105 % of control

O=[N+]([O-])c1cccc2c[n+](Cc3ccc(Br)cc3)ccc12
inactive: [10] 107 % of control | [11] 117 % of control | [12] 118 % of control

CCCCCC(CN(C)C)C(=O)/C=C/c1ccccc1Cl (centres undefined)
inactive: [10] 104 % of control | [11] 102 % of control | [12] 93 % of control | dose: 50.0 mg/kg/injection, schedule: Q01DX009 (ip), vehicle: saline 101 % of control

CCOC(CN(C)C)C(Cl)(Cl)Cl (centres undefined)
inactive: dose: 25.0 mg/kg/injection, schedule: Q01DX009 (ip), vehicle: Klucel (hydroxypropylcellulose) (HPC) 103 % of control | [13] 103 % of control | [14] 88 % of control | [15] 108 % of control

O=C(O)CSc1cc2c3ccccc3sc2c2ccccc12
inactive: dose: 40.0 mg/kg/injection, schedule: Q01DX005 (ip), vehicle: Klucel (hydroxypropylcellulose) (HPC) 100 % of control | dose: 80.0 mg/kg/injection, schedule: Q01DX005 (ip), vehicle: Klucel (hydroxypropylcellulose) (HPC) 107 % of control | dose: 160.0 mg/kg/injection, schedule: Q01DX005 (ip), vehicle: Klucel (hydroxypropylcellulose) (HPC) 106 % of control

CCC(c1ccc(OCC(=O)N(CCCl)CCCl)cc1)C(CC)c1ccc(OCC(=O)N(CCCl)CCCl)cc1 (centres undefined)
inactive: [6] 98 % of control | [7] 97 % of control | dose: 400.0 mg/kg/injection, schedule: Q04DX002 (ip), vehicle: suspension in saline 103 % of control

Cc1ccc(N=C(c2ccccc2)C2C(=O)c3ccccc3C2=O)cc1
inactive: [16] 97 % of control | [17] 97 % of control | [18] 94 % of control

CN1C(=O)NC(=O)C(=C2C=C(c3ccccc3)C(C#N)(c3ccccc3)C(c3ccccc3)=C2)C1=O (centres undefined)
inactive: [16] 97 % of control | [17] 97 % of control | [18] 101 % of control

O=c1[nH]nc(SCc2ccc(Cl)cc2)c(=O)[nH]1
inactive: dose: 25.0 mg/kg/injection, schedule: Q01DX005 (ip), vehicle: Klucel (hydroxypropylcellulose) (HPC) 92 % of control | [16] 91 % of control | [17] 90 % of control | [18] 87 % of control

C=CCC12CC(COc3ccccc3C(N)=O)OC1=Nc1ccccc1NC2=O (centres undefined)
inactive: [3] 113 % of control | [4] 100 % of control | [5] 99 % of control

COc1ccccc1NC(=O)CC(=O)N1N=C(C)C(N=Nc2cccc(C(=O)O)c2)C1=O (centres undefined)
inactive: [1] 98 % of control | [2] 98 % of control

O=S(O)Cc1ccccc1CSSSCc1ccccc1CS(=O)O
inactive: dose: 25.0 mg/kg/injection, schedule: Q01DX005 (ip), vehicle: saline 114 % of control | [8] 114 % of control | [9] 114 % of control | dose: 200.0 mg/kg/injection, schedule: Q01DX005 (ip), vehicle: saline 112 % of control

CCOC(=O)C1=C(C)O/C(=C/C=C/c2ccccc2)C1=O
inactive: [13] 102 % of control | [14] 98 % of control | [15] 103 % of control

[Br][Sn]([Br])([CH2][Sn]([Br])([Br])[c]1ccccc1)[c]1ccccc1
inactive: [16] 97 % of control | [17] 99 % of control | [18] 89 % of control

C/C=C(\C)c1cc(=O)c2c(C)cc3c(c2o1)C(=O)c1c(O)c(C2CC(C)(N(C)C)C(OC(C)=O)C(C)O2)cc(C2CC(N(C)C)C(O)C(C)O2)c1C3=O (centres undefined)
inactive: dose: 1.25 mg/kg/injection, schedule: Q01DX009 (ip), vehicle: saline 100 % of control | dose: 2.5 mg/kg/injection, schedule: Q01DX009 (ip), vehicle: saline 117 % of control | dose: 5.0 mg/kg/injection, schedule: Q01DX009 (ip), vehicle: saline 89 % of control

C=CCc1cc(C(CC)C(CC)c2ccc(OCCN(CC)CC)c(CC=C)c2)ccc1OCCN(CC)CC (centres undefined)
inactive: [3] 95 % of control | [4] 98 % of control | [5] 101 % of control
